Test results taken from ChEMBL document CHEMBL1201862, “PubChem BioAssay data set” (2004).
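Grown in 96-well plates, cells were treated for 48 hours with each compound at five concentrations. Insufficient inhibition: endpoint recorded as highest concentration tested. GI50 marks 50% less growth.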 The source made the active and inactive calls. Rule as the data show it: active = GI50 up to about 1.1 µM and inactive = higher.

Tests used:
Assay in all cases: NCI-60 cell line screen, 48 h
IGROV-1 = system: IGROV-1
KM12 = system: KM12
SK-OV-3 = system: SK-OV-3
SK-MEL-2 = system: SK-MEL-2
OVCAR-3 = system: OVCAR-3
NCI-H460 = system: NCI-H460
UO-31 = system: UO-31
HCT-116 = system: HCT-116
T47D = system: T47D
SN12C = system: SN12C
SNB-19 = system: SNB-19
TK-10 = system: TK-10
UACC-257 = system: UACC-257
HOP-62 = system: HOP-62
DU-145 = system: DU-145
U-251 = system: U-251
MDA-MB-231 = system: MDA-MB-231
PC-3 = system: PC-3
RXF 393 = system: RXF 393
OVCAR-4 = system: OVCAR-4
MDA-N = system: MDA-N
OVCAR-5 = system: OVCAR-5
CCRF-CEM = system: CCRF-CEM
CAKI-1 = system: CAKI-1
COLO 205 = system: COLO 205
HCC 2998 = system: HCC 2998
A498 = system: A498
LOX IMVI = system: LOX IMVI
ACHN = system: ACHN
MOLT-4 = system: MOLT-4
786-0 = system: 786-0
BT-549 = system: BT-549
UACC-62 = system: UACC-62
M14 = system: M14
SF-268 = system: SF-268
SW-620 = system: SW-620
Malme-3M = system: Malme-3M
SF-539 = system: SF-539
MCF7 = system: MCF7
SF-295 = system: SF-295
NCI-H522 = system: NCI-H522
Hs-578T = system: Hs-578T
HCT-15 = system: HCT-15
SK-MEL-5 = system: SK-MEL-5
MDA-MB-435 = system: MDA-MB-435
NCI-H23 = system: NCI-H23
K562 = system: K562
A549 = system: A549
EKVX = system: EKVX
OVCAR-8 = system: OVCAR-8
SK-MEL-28 = system: SK-MEL-28
SR = system: SR
HT-29 = system: HT-29
NCI/ADR-RES = system: NCI/ADR-RES
RPMI-8226 = system: RPMI-8226
NCI-H226 = system: NCI-H226
HL-60 = system: HL-60
SNB-75 = system: SNB-75

With `COC1=C(OC)C(=O)C(C/C=C/c2c(Cl)nc3sccn23)=C(C)C1=O` the GI50 (IGROV-1) was 17.4 µM (inactive), the GI50 (KM12) was 17.5 µM (inactive) and the GI50 (SK-OV-3) was 16.7 µM (inactive). For the same compound, the GI50 (SK-MEL-2) was 16.4 µM (inactive), the GI50 (OVCAR-3) was 13.7 µM (inactive) and the GI50 (NCI-H460) was 17.9 µM (inactive). The GI50 (UO-31) was 18.7 µM (inactive), the GI50 (HCT-116) was 12.8 µM (inactive) and the GI50 (T47D) was 7.74 µM (inactive). The GI50 (SN12C) was 16.6 µM (inactive), the GI50 (SNB-19) was 14.1 µM (inactive) and the GI50 (TK-10) was 15 µM (inactive). For the same compound, the GI50 (UACC-257) was 0.536 µM (active), the GI50 (HOP-62) was 16.8 µM (inactive) and the GI50 (DU-145) was 18.5 µM (inactive). For the same compound, the GI50 (U-251) was 5.87 µM (inactive), the GI50 (MDA-MB-231) was 7.67 µM (inactive) and the GI50 (PC-3) was 11.8 µM (inactive). The GI50 (RXF 393) was 18.4 µM (inactive), the GI50 (OVCAR-4) was 0.398 µM (active) and the GI50 (MDA-N) was 6.38 µM (inactive). For the same compound, the GI50 (OVCAR-5) was 16.9 µM (inactive), the GI50 (CCRF-CEM) was 1.85 µM (inactive) and the GI50 (CAKI-1) was 12.2 µM (inactive). For the same compound, the GI50 (COLO 205) was 16.9 µM (inactive), the GI50 (HCC 2998) was 18.2 µM (inactive) and the GI50 (A498) was 22.2 µM (inactive). The GI50 (LOX IMVI) was 2.24 µM (inactive), the GI50 (ACHN) was 15.5 µM (inactive) and the GI50 (MOLT-4) was 1.69 µM (inactive). For the same compound, the GI50 (786-0) was 21.5 µM (inactive), the GI50 (BT-549) was 15 µM (inactive) and the GI50 (UACC-62) was 14.5 µM (inactive). The GI50 (M14) was 16.2 µM (inactive), the GI50 (SF-268) was 16 µM (inactive) and the GI50 (SW-620) was 21.3 µM (inactive). The GI50 (Malme-3M) was 3.75 µM (inactive), the GI50 (SF-539) was 17.2 µM (inactive) and the GI50 (MCF7) was 5.19 µM (inactive). The GI50 (SF-295) was 2.1 µM (inactive), the GI50 (NCI-H522) was 15.1 µM (inactive) and the GI50 (Hs-578T) was 20.5 µM (inactive). For the same compound, the GI50 (HCT-15) was 26.5 µM, the GI50 (SK-MEL-5) was 1.32 µM (inactive) and the GI50 (MDA-MB-435) was 9.16 µM (inactive). For the same compound, the GI50 (NCI-H23) was 0.518 µM (active), the GI50 (K562) was 19.8 µM (inactive) and the GI50 (A549) was 11.2 µM (inactive). For the same compound, the GI50 (EKVX) was 11.2 µM (inactive), the GI50 (OVCAR-8) was 10.4 µM (inactive) and the GI50 (SK-MEL-28) was 17.9 µM (inactive). For the same compound, the GI50 (SR) was 15 µM (inactive), the GI50 (HT-29) was 20.7 µM (inactive) and the GI50 (NCI/ADR-RES) was 5.58 µM (inactive). For the same compound, the GI50 (RPMI-8226) was 4.35 µM (inactive).

In the case of `CCOC(=O)/C(=N\OC)C(O)C(F)(F)F` (stereo not given), the GI50 (IGROV-1) is reported as > 100 µM (inactive), the GI50 (KM12) is reported as > 100 µM (inactive) and the GI50 (SK-OV-3) is reported as > 100 µM (inactive). For the same compound, the GI50 (SK-MEL-2) was > 100 µM (inactive), the GI50 (UO-31) was > 100 µM (inactive) and the GI50 (HCT-116) was > 100 µM (inactive). The GI50 (NCI-H226) was > 100 µM (inactive), the GI50 (HL-60) was > 100 µM (inactive) and the GI50 (T47D) was > 100 µM (inactive). The GI50 (SN12C) was > 100 µM (inactive), the GI50 (SNB-19) was > 100 µM (inactive) and the GI50 (TK-10) was > 100 µM (inactive). For the same compound, the GI50 (UACC-257) was > 100 µM (inactive), the GI50 (HOP-62) was > 100 µM (inactive) and the GI50 (DU-145) was > 100 µM (inactive). The GI50 (U-251) was > 100 µM (inactive), the GI50 (MDA-MB-231) was > 100 µM (inactive) and the GI50 (PC-3) was > 100 µM (inactive). The GI50 (RXF 393) was > 100 µM (inactive), the GI50 (MDA-N) was > 100 µM (inactive) and the GI50 (OVCAR-5) was > 100 µM (inactive). For the same compound, the GI50 (CCRF-CEM) was > 100 µM (inactive), the GI50 (CAKI-1) was > 100 µM (inactive) and the GI50 (COLO 205) was > 100 µM (inactive). For the same compound, the GI50 (SNB-75) was > 100 µM (inactive), the GI50 (HCC 2998) was > 100 µM (inactive) and the GI50 (A498) was > 100 µM (inactive). For the same compound, the GI50 (LOX IMVI) was > 100 µM (inactive), the GI50 (ACHN) was > 100 µM (inactive) and the GI50 (MOLT-4) was > 100 µM (inactive). The GI50 (786-0) was > 100 µM (inactive), the GI50 (BT-549) was > 100 µM (inactive) and the GI50 (UACC-62) was > 100 µM (inactive). For the same compound, the GI50 (M14) was > 100 µM (inactive), the GI50 (SF-268) was > 100 µM (inactive) and the GI50 (SW-620) was > 100 µM (inactive). The GI50 (Malme-3M) was > 100 µM (inactive), the GI50 (SF-539) was > 100 µM (inactive) and the GI50 (MCF7) was > 100 µM (inactive). The GI50 (SF-295) was > 100 µM (inactive), the GI50 (NCI-H522) was > 100 µM (inactive) and the GI50 (Hs-578T) was > 100 µM (inactive). The GI50 (HCT-15) was over 100 µM, the GI50 (SK-MEL-5) was > 100 µM (inactive) and the GI50 (MDA-MB-435) was > 100 µM (inactive). The GI50 (NCI-H23) was > 100 µM (inactive), the GI50 (K562) was > 100 µM (inactive) and the GI50 (A549) was > 100 µM (inactive). The GI50 (EKVX) was > 100 µM (inactive), the GI50 (OVCAR-8) was > 100 µM (inactive) and the GI50 (SK-MEL-28) was > 100 µM (inactive). For the same compound, the GI50 (SR) was > 100 µM (inactive), the GI50 (HT-29) was > 100 µM (inactive) and the GI50 (NCI/ADR-RES) was > 100 µM (inactive). For the same compound, the GI50 (RPMI-8226) was > 100 µM (inactive).
